The assay in a line: Antioxidation activity by DPPH method. Particulars: 50 μg/ml, positive control. On the procedure:
7) Antioxidation activity measurement test: The antioxidation activity of each sample was measured by a DPPH method using 1.1-diphenyl-2-picrylhydrazyl. The positive control group was treated with BHT at a concentration of 50 μg/ml.

For `Cc1cc(C(C)(C)C)c(O)c(C(C)(C)C)c1` [BHT], the DPPH inhibition was found to be 10%.

Values taken from patent US20220095663A1, “COMPLEX MUSHROOM MYCELIUM COMPOSITION HAVING LIVER FUNCTION-IMPROVING ACTIVITY AND PREPARATION METHOD THEREFOR” (GIUNCHAN CO., LTD., priority 2019, published 2022).
